Measurements taken from patent US20190204342A1, “METHODS AND USES OF MITOFUSINS” (NESTEC S.A., priority 2014, published 2019).

What was measured:
[1] = Hypoglycemic effect of metformin in high-fat diet fed control and Mfn1LKO mice (blood glucose); format: in vivo; details: metformin 125 mg/kg injected after overnight fast; 8 weeks high-fat diet; Mfn1LKO vs control mice
Source text: 12 week old Control and Mfn1 LKO mice were fed for 8 weeks with a high-fat diet (D12492, Research Diets Inc., USA).

[2] = test system: AMPK; experiment: AMPK activation in liver after metformin injection (western blot of markers CRTC2, elF2alpha, GAPDH); format: in vivo; details: metformin 125 mg/kg; livers taken 90 minutes later; high-fat diet; Mfn1 LKO vs control mice
Procedure: 12 week old Control and Mfn1 LKO mice were fed for 8 weeks with a high-fat diet (D12492, Research Diets Inc., USA). Then, mice were fasted overnight and injected with either saline (as vehicle) or metformin (125 mg/kg). Mice were sacrificed 90 minutes later and livers were immediately extracted and frozen. Protein extracts were obtained and used for western blot analyses to test the markers of AMPK activation: CRTC2, elF2alpha and GAPDH.

[3] = test system: mitochondrial Complex I; experiment: Metformin inhibition of mitochondrial respiration (respirometry, metformin titrated); format: biochemical; details: liver mitochondria from WT and Mfn1 LKO mice, malate, glutamate, ADP
Procedure: Freshly extracted mitochondria from WT and Mfn1LKO mice were homogenized in respiration medium and 2 mg of tissue were used for respirometry analyses. In them, complex I activity was stimulated by the addition of malate and glutamate. Then, ADP was added to achieve maximal coupled respiration and metformin was subsequently titrated.
Freshly extracted mitochondria from WT and Mfn1 LKO mice were resuspended in respiration medium and 100 μg of protein were used for respirometry analyses. Complex I activity was stimulated by the addition of malate and glutamate. Then, ADP was added to achieve maximal coupled respiration and metformin was subsequently titrated.

CN(C)C(=N)N=C(N)N [metformin, Metformin]
hypoglycemic effect (blood glucose levels) [1]: enhanced in Mfn1LKO mice | AMPK activation (markers of AMPK activation) [2]: enhanced AMPK activation | mitochondrial Complex I respiration inhibition [3]: inhibited more in the Mfn1 LKO mice than in the control mice
